What all share (assay): Small molecule-enzyme mutant complementation study
Holding throughout (assay type): biochemical

One data set concerns the target T1, hIDE W199F (Homo sapiens, UniProt P14735, W199F).
T1 construct: The reported N-His6-tagged human IDE42-1019 construct; made in house; host or cells: E. coli Rosetta 2 (DE3) pLysS
The note with it: W199F vs hIDE WT, batch 2. An excerpt: (§1) Protease assays with fluorogenic peptide substrates. […] All assay data points were obtained in duplicate.
(§2) Site-directed mutagenesis, expression, and purification of human IDE. The reported N-His6-tagged human IDE42-1019 construct was introduced in the expression plasmid pTrcHis-A (Invitrogen) using primers for uracil-specific excision reactions (USER) by Taq (NEB) and Pfu polymerases (PfuTurbo CX®, Agilent). The IDE gene was amplified with the primers 5′-[…]-dU-[…] and 5′-[…] G-dU-[…] (underlined sequences represent overhangs, and italics highlight the PCR priming sequence). Similarly, the pTrcHis-A vector was amplified for USER cloning with the primers 5′-[…] TGA-dU-[…] CCC and 5′-[…]-dU-[…]. Mutant IDE constructs were generated by amplifying the full vector construct with USER cloning primers introducing a mutant overhang (Table 5).
(§3) All PCR products were purified on microcentrifuge membrane columns (MinElute®, Qiagen) and quantified by UV absorbance (NanoDrop). Each fragment (0.2 pmol) was combined in a 10 μL reaction mixture containing 20 units DpnI (NEB), 0.75 units of USER mix (Endonuclease VIII and Uracil-DNA Glycosylase, NEB), 20 mM Tris-acetate, 50 mM potassium acetate, 10 mM magnesium acetate, 1 mM dithiothreitol at pH 7.9 (1× NEBuffer 4). The reactions were incubated at 37° C. for 45 min, followed by heating to 80° C. and slow cooling to 30° C. (0.2° C./s). The hybridized constructs were directly used for heat-shock transformation of chemically competent NEB turbo E. coli cells according to the manufacturer's instructions. Transformants were selected on carbenicillin LB agar, and isolated colonies were cultured overnight in 2 mL LB.
(§4) The plasmid was extracted using a microcentrifuge membrane column kit (Miniprep®, Qiagen), and the sequence of genes and vector junctions were confirmed by Sanger sequencing (Table 6). The plasmid constructs were transformed by heat-shock into chemically-competent expression strain Rosetta 2 (DE3) pLysS E. coli cells (EMD Millipore), and selected on carbenicillin/chloramphenicol LB agar. Cells transformed with IDE pTrcHis A constructs were cultured overnight at 37° C. in 2 XYT media (31 g in 1 L) containing 100 μg/mL ampicillin and 34 μg/mL chloramphenicol. Expression of His6-tagged IDE proteins was induced when the culture measured OD600 ˜0.6 by addition of isopropyl-β-D-1-thiogalactopyranoside (IPTG) to 1 mM final concentration, incubated overnight at 37° C., followed by centrifugation at 10,000 g for 30 min at 4° C.
(§5) Recombinant His6-tagged proteins were purified by Ni(II)-affinity chromatography (IMAC sepharose beads, GE Healthcare®) according to the manufacturer's instructions. The cell pellets were resuspended in pH 8.0 buffer containing 50 mM phosphate, 300 mM NaCl, 10 mM imidazole, 1% Triton X-100 and 1 mM tris(2-carboxyethyl)phosphine hydrochloride (TCEP), and were lysed by probe sonication for 4 min at 4° C., followed by clearing of cell debris by centrifugation at 10,000 g for 25 min at 4° C. The supernatant was incubated with Ni(II)-doped IMAC resin (2 mL) for 3 h at 4° C. The resin was washed twice with the cell resuspension/lysis buffer, and three times with pH 8.0 buffer containing 50 mM phosphate, 300 mM NaCl,50 mM imidazole and 1 mM TCEP. Elution was performed in 2 mL aliquots by raising the imidazole concentration to 250 mM and subsequently to 500 mM in the previous buffer. The fractions were combined and the buffer was exchanged to the recommended IDE buffer (R&D) using spin columns with 100 KDa molecular weight cut off membranes (Millipore). Protein yields were typically ˜10 μg/L, and >90% purity based on gel electrophoresis analysis (Coomassie stained).

The target of the next data set is T2, hIDE V360Q (Homo sapiens, UniProt P14735, V360Q).
T2 construct: The reported N-His6-tagged human IDE42-1019 construct was introduced in the expression plasmid pTrcHis-A; made in house; host or cells: E. coli Rosetta 2 (DE3) pLysS
The note with it: V360Q vs hIDE WT, batch 1.
Excerpt: as §1, §2, §3, §4, §5

The target in a further data set is T3, hIDE F202R (Homo sapiens, UniProt P14735, F202R).
T3 construct: The reported N-His6-tagged human IDE42-1019 construct; made in house; host or cells: E. coli Rosetta 2 (DE3) pLysS
The note with it: F202R vs hIDE WT, batch 2.
Excerpt: as §1, §2, §3, §4, §5

A further data set addresses T4, hIDE K364A (Homo sapiens, UniProt P14735, K364A).
T4 construct: The reported N-His6-tagged human IDE42-1019 construct was introduced in the expression plasmid pTrcHis-A; made in house; host or cells: E. coli Rosetta 2 (DE3) pLysS
To be noted: K364A vs hIDE WT, batch 2.
Excerpt: as §1, §2, §3, §4, §5

For the next data set, the target named is T5, hIDE I374M (Homo sapiens, UniProt P14735, I374M).
T5 construct: The reported N-His6-tagged human IDE42-1019 construct was introduced in the expression plasmid pTrcHis-A; made in house; host or cells: E. coli Rosetta 2 (DE3) pLysS
To be noted: I374M vs hIDE WT, batch 1.
Excerpt: as §1, §2, §3, §4, §5

The next data set deals with T6, hIDE A198Y (Homo sapiens, UniProt P14735, A198Y).
T6 construct: The reported N-His6-tagged human IDE42-1019 construct; made in house; host or cells: E. coli Rosetta 2 (DE3) pLysS
The note with it: A198Y vs hIDE WT, batch 2.
Excerpt: as §1, §2, §3, §4, §5

Another data set has as its target T7, hIDE A198T (Homo sapiens, UniProt P14735, A198T).
T7 construct: The reported N-His6-tagged human IDE42-1019 construct; made in house; host or cells: E. coli Rosetta 2 (DE3) pLysS
The note with it: A198T vs hIDE WT, batch 2.
Excerpt: as §1, §2, §3, §4, §5

For a further data set, the target named is T8, hIDE V360R (Homo sapiens, UniProt P14735, V360R).
T8 construct: The reported N-His6-tagged human IDE42-1019 construct was introduced in the expression plasmid pTrcHis-A; made in house; host or cells: E. coli Rosetta 2 (DE3) pLysS
The note with it: V360R vs hIDE WT, batch 3.
Excerpt: as §1, §2, §3, §4, §5

The target of the next data set is T9, hIDE F202L (Homo sapiens, UniProt P14735, F202L).
T9 construct: The reported N-His6-tagged human IDE42-1019 construct; made in house; host or cells: E. coli Rosetta 2 (DE3) pLysS
The note with it: F202L vs hIDE WT, batch 1.
Excerpt: as §1, §2, §3, §4, §5

Another data set deals with T10, hIDE W199Y (Homo sapiens, UniProt P14735, W199Y).
T10 construct: The reported N-His6-tagged human IDE42-1019 construct; made in house; host or cells: E. coli Rosetta 2 (DE3) pLysS
The note with it: W199Y vs hIDE WT, batch 2.
Excerpt: as §1, §2, §3, §4, §5

The next data set deals with T11, hIDE Y314F (Homo sapiens, UniProt P14735, Y314F).
T11 construct: The reported N-His6-tagged human IDE42-1019 construct; made in house; host or cells: E. coli Rosetta 2 (DE3) pLysS
The note with it: Y314F vs hIDE WT, batch 2.
Excerpt: as §1, §2, §3, §4, §5

The target of the next data set is T12, hIDE I310R (Homo sapiens, UniProt P14735, I310R).
T12 construct: The reported N-His6-tagged human IDE42-1019 construct; made in house; host or cells: E. coli Rosetta 2 (DE3) pLysS
The note with it: I310R vs hIDE WT, batch 2.
Excerpt: as §1, §2, §3, §4, §5

The next data set concerns the target T13, hIDE A198Q (Homo sapiens, UniProt P14735, A198Q).
T13 construct: The reported N-His6-tagged human IDE42-1019 construct; made in house; host or cells: E. coli Rosetta 2 (DE3) pLysS
To be noted: A198Q vs hIDE WT, batch 1.
Excerpt: as §1, §2, §3, §4, §5

T10 sequence (P14735 42-1019 W199Y): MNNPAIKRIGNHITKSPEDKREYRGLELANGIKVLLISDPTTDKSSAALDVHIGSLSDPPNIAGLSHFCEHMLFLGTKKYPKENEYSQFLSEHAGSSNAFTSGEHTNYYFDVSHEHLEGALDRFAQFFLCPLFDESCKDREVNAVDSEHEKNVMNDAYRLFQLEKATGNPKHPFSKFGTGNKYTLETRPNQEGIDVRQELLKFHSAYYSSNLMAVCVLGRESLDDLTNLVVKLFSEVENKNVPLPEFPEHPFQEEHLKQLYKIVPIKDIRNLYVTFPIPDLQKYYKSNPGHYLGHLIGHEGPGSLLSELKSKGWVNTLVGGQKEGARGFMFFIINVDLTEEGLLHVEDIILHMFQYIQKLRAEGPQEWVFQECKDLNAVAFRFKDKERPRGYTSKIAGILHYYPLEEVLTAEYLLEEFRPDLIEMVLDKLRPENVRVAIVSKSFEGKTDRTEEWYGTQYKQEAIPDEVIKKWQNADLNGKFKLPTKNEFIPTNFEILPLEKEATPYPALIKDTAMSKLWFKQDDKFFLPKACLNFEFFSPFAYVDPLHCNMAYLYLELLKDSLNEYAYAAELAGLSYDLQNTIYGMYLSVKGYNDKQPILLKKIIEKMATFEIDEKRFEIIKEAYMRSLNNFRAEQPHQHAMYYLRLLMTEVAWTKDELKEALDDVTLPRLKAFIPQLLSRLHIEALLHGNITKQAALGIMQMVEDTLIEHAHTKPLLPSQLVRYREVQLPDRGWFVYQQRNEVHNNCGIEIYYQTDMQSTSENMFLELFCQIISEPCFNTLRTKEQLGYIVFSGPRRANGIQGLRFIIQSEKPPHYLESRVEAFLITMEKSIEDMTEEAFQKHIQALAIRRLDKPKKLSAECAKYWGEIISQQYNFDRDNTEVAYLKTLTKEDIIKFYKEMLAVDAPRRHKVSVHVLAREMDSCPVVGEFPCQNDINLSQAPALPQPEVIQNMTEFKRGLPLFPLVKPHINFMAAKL
T7 sequence (P14735 42-1019 A198T): as the sequence (P14735 42-1019 W199Y) above, with A157T, Y158W counted along it
T11 sequence (P14735 42-1019 Y314F): as the sequence (P14735 42-1019 W199Y) above, with Y158W, Y273F counted along it
T4 sequence (P14735 42-1019 K364A): as the sequence (P14735 42-1019 W199Y) above, with Y158W, K323A counted along it
T1 sequence (P14735 42-1019 W199F): as the sequence (P14735 42-1019 W199Y) above, with Y158F counted along it
T2 sequence (P14735 42-1019 V360Q): as the sequence (P14735 42-1019 W199Y) above, with Y158W, V319Q counted along it
T5 sequence (P14735 42-1019 I374M): as the sequence (P14735 42-1019 W199Y) above, with Y158W, I333M counted along it
T6 sequence (P14735 42-1019 A198Y): as the sequence (P14735 42-1019 W199Y) above, with A157Y, Y158W counted along it
T9 sequence (P14735 42-1019 F202L): as the sequence (P14735 42-1019 W199Y) above, with Y158W, F161L counted along it
T12 sequence (P14735 42-1019 I310R): as the sequence (P14735 42-1019 W199Y) above, with Y158W, I269R counted along it
T13 sequence (P14735 42-1019 A198Q): as the sequence (P14735 42-1019 W199Y) above, with A157Q, Y158W counted along it
T8 sequence (P14735 42-1019 V360R): as the sequence (P14735 42-1019 W199Y) above, with Y158W, V319R counted along it
T3 sequence (P14735 42-1019 F202R): as the sequence (P14735 42-1019 W199Y) above, with Y158W, F161R counted along it

For the compound `NC(=O)CCC1NC(=O)C=CC(=O)NC(C(N)=O)CCCCNC(=O)C(Cc2ccc(C(=O)c3ccccc3)cc2)NC(=O)C(CC2CCCCC2)NC1=O` (stereo not shown) [Compound 6b], the IC50 shift at hIDE W199F amounted to 3.0 fold; at hIDE V360Q it was 1.5 fold; on hIDE F202R, 3.7 fold; at hIDE K364A, 26 fold; at hIDE I374M, 0.7 fold; at hIDE A198Y, 0.5 fold. Further, the IC50 shift on hIDE A198T came out at 16 fold; at hIDE V360R, 1.4 fold; on hIDE F202L, 1.7 fold; on hIDE W199Y, 1.8 fold; at hIDE Y314F, 1.2 fold; on hIDE I310R it was 0.8 fold. For the same compound, on hIDE A198Q, the IC50 shift was 2.3 fold.

(Values after patent publication US20160282364A1, “ASSAY FOR INSULIN-DEGRADING ENZYME (IDE) INHIBITORS” (PRESIDENT AND FELLOWS OF HARVARD COLLEGE, priority 2013, published 2016).)
